# Test results as given in publication PMC12274840 (The Journal of Biological Chemistry, 2025).
# Values joined by “and” are separate entries in the source; they are usually repeats but may differ in a detail not shown here. Equal values may be shown once. Read-outs that look alike come from different tables or passages of the source.
# How the values were obtained:
# [1] = tested on: E. coli KA797 cells carrying pUK21 with BlaC WT (Tat); assay: microbe, parasite or virus in culture; assay type: cell-based; details: in combination with 100 μg/ml carbenicillin
# [2] = tested on: E. coli KA797 cells carrying pUK21 with CTX-M-14 WT (Tat); assay: microbe, parasite or virus in culture; assay type: cell-based; details: in combination with 100 μg/ml carbenicillin
# [3] = tested on: E. coli KA797 cells carrying pUK21 with KPC-2 (Tat); assay: microbe, parasite or virus in culture; assay type: cell-based; details: in combination with 100 μg/ml carbenicillin
# [4] = tested on: E. coli KA797 cells carrying pUK21 with NmcA (pelB/Sec); assay: microbe, parasite or virus in culture; assay type: cell-based; details: in combination with 25 μg/ml carbenicillin
# [5] = tested on: E. coli KA797 cells carrying pUK21 with TEM-1 WT (Sec); assay: microbe, parasite or virus in culture; assay type: cell-based; details: in combination with 100 μg/ml carbenicillin
# [6] = tested on: E. coli KA797 cells carrying pUK21 with BlaC I105R; assay type: cell-based, Escherichia coli; details: in combination with 100 μg/ml carbenicillin
# [7] = tested on: E. coli KA797 cells carrying pUK21 with BlaC I105G; assay type: cell-based, Escherichia coli; details: in combination with 100 μg/ml carbenicillin
# [8] = tested on: E. coli KA797 cells carrying pUK21 with CTX-M-14 Y105R; assay type: cell-based, Escherichia coli; details: in combination with 100 μg/ml carbenicillin
# [9] = tested on: E. coli KA797 cells carrying pUK21 with CTX-M-14 Y105G; assay type: cell-based, Escherichia coli; details: in combination with 100 μg/ml carbenicillin
# [10] = tested on: E. coli KA797 cells carrying pUK21 with TEM-1 Y105R; assay type: cell-based, Escherichia coli; details: in combination with 100 μg/ml carbenicillin
# [11] = tested on: E. coli KA797 cells carrying pUK21 with TEM-1 Y105G; assay type: cell-based, Escherichia coli; details: in combination with 100 μg/ml carbenicillin
# BlaC WT = target: T1, BlaC WT (Mycobacterium tuberculosis, UniProt P9WKD3); assay type: biochemical
# T1 construct: correspond to residue numbers 41-307 of BlaC (Uniprot entry P9WKD3-1); His tag with TEV cleavage site (N); made in house; host or cells: E. coli BL21 (DE3) pLysS
# TEM-1 Y105G = TEM-1 Y105G (Escherichia coli, UniProt P62593, Y103G); assay: In vitro inhibition of nitrocefin hydrolysis and simulation of inhibition curves, TEM-1 Y105G; assay type: biochemical; details: clavulanic acid, simulation Eq 2/8
# [12] = tested on: E. coli KA797 cells carrying BlaC position 105 library; assay type: cell-based, Escherichia coli; details: for Fi AVG (average fitness): average of replicates
# [13] = tested on: E. coli KA797 cells carrying CTX-M-14 position 105 library; assay type: cell-based
# TEM-1 WT = TEM-1 WT (Escherichia coli, UniProt P62593); assay type: biochemical; set-up: 24 to 286 of TEM-1 (P62593); His tag with TEV cleavage site (N); made in house; host or cells: E. coli BL21 (DE3) pLysS; details: clavulanic acid, TEM-1 WT
# T1 sequence (P9WKD3 41-307): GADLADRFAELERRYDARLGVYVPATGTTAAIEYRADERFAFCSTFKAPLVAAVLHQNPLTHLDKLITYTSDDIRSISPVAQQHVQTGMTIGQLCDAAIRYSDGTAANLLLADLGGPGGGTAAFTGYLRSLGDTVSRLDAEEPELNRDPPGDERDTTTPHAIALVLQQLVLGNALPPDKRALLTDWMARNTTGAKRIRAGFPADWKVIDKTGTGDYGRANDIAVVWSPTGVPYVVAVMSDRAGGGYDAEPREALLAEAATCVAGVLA
compound,measurement,setting,value
O=C(O)[C@H]1/C(=C/CO)O[C@@H]2CC(=O)N21 [clavulanic acid],MIC of inhibitor,[1],0.5 µg/mL
same,MIC of inhibitor,[2],1 µg/mL
same,MIC of inhibitor,[3],1 µg/mL
same,MIC of inhibitor,[4],2 µg/mL
same,MIC of inhibitor,[5],2 µg/mL
same,MIC of inhibitor,[6],4 µg/mL
same,MIC of inhibitor,[7],1 µg/mL
same,MIC of inhibitor,[8],1 µg/mL
same,MIC of inhibitor,[9],1 µg/mL
same,MIC of inhibitor,[10],2 µg/mL
same,MIC of inhibitor,[11],32 µg/mL
same,k1,BlaC WT,1e+06 M⁻¹ s⁻¹
same,k2,BlaC WT,4.5 and 4.5 10^−2 s^−1
same,k3,BlaC WT,1.8
same,k2,TEM-1 Y105G,9.6 10^−2 s^−1
same,k3,TEM-1 Y105G,3.1 10^−3 s^−1
same,Significance of average fitness,[12]; AA 105 Ala (BlaC I105A),+
same,Fi AVG (average fitness),"[12]; AA 105 Ala (BlaC I105A), relative to WT Ile",0.441
same,Significance of average fitness,[12]; AA 105 Arg (BlaC I105R),+
same,Fi AVG (average fitness),"[12]; AA 105 Arg (BlaC I105R), relative to WT Ile",0.649
same,Fi AVG (average fitness),"[12]; AA 105 Asn (BlaC I105N), relative to WT Ile",-0.00565
same,Fi AVG (average fitness),"[12]; AA 105 Asp (BlaC I105D), relative to WT Ile",-0.195
same,Fi AVG (average fitness),"[12]; AA 105 Cys (BlaC I105C), relative to WT Ile",0.048
same,Fi AVG (average fitness),"[12]; AA 105 Gln (BlaC I105Q), relative to WT Ile",-0.027
same,Fi AVG (average fitness),"[12]; AA 105 Glu (BlaC I105E), relative to WT Ile",-0.066
same,Significance of average fitness,[12]; AA 105 Gly (BlaC I105G),+
same,Fi AVG (average fitness),"[12]; AA 105 Gly (BlaC I105G), relative to WT Ile",0.325
same,Fi AVG (average fitness),"[12]; AA 105 His (BlaC I105H), relative to WT Ile",0.091
same,Fi AVG (average fitness),"[12]; AA 105 Ile (BlaC WT, reference)",0.000
same,Fi AVG (average fitness),"[12]; AA 105 Leu (BlaC I105L), relative to WT Ile",0.152
same,Fi AVG (average fitness),"[12]; AA 105 Lys (BlaC I105K), relative to WT Ile",0.212
same,Fi AVG (average fitness),"[12]; AA 105 Met (BlaC I105M), relative to WT Ile",0.159
same,Significance of average fitness,[12]; AA 105 Phe (BlaC I105F),+
same,Fi AVG (average fitness),"[12]; AA 105 Phe (BlaC I105F), relative to WT Ile",0.271
same,Fi AVG (average fitness),"[12]; AA 105 Pro (BlaC I105P), relative to WT Ile",0.200
same,Significance of average fitness,[12]; AA 105 Ser (BlaC I105S),+
same,Fi AVG (average fitness),"[12]; AA 105 Ser (BlaC I105S), relative to WT Ile",0.440
same,Significance of average fitness,[12]; AA 105 Thr (BlaC I105T),+
same,Fi AVG (average fitness),"[12]; AA 105 Thr (BlaC I105T), relative to WT Ile",0.421
same,Fi AVG (average fitness),"[12]; AA 105 Trp (BlaC I105W), relative to WT Ile",0.208
same,Significance of average fitness,[12]; AA 105 Tyr (BlaC I105Y),+
same,Fi AVG (average fitness),"[12]; AA 105 Tyr (BlaC I105Y), relative to WT Ile",0.298
same,Fi AVG (average fitness),"[12]; AA 105 Val (BlaC I105V), relative to WT Ile",0.071
same,WT abs Fi 1,"[12]; absolute fitness of BlaC WT (Ile 105), replicate 1",-0.077
same,WT abs Fi 2,"[12]; absolute fitness of BlaC WT (Ile 105), replicate 2",0.311
same,Significance of average fitness,[13]; CTX-M-14 AA 105 Arg,-
same,Significance of average fitness,[13]; CTX-M-14 AA 105 Gly,+
same,Significance of average fitness,[13]; CTX-M-14 AA 105 Trp,+
same,"WT abs Fi 1 (absolute fitness of wild type, Replicate 1)",[13]; CTX-M-14 WT (Tyr 105),-0.544
same,"WT abs Fi 2 (absolute fitness of wild type, Replicate 2)",[13]; CTX-M-14 WT (Tyr 105),-0.635
same,k2,TEM-1 WT; simulation Eq 2/8,8 10^−2 s^−1
same,k3,TEM-1 WT; simulation Eq 2/8,1.8 10^−3 s^−1
same,k1,TEM-1 WT; simulation Eq 8,900000 M⁻¹ s⁻¹
